Source: the Deep4Chem optical property database
Each block holds one compound with its values, some of them ahead of it.

Experiment: photoluminescence quantum yield (fraction); solvent given as SMILES
[1] = in O=P(c1ccccc1)(c1ccccc1)c1ccccc1Oc1ccccc1P(=O)(c1ccccc1)c1ccccc1

Structure (SMILES): CCn1c2ccccc2c2cc(-c3cc(-c4ccc5c(c4)c4ccccc4n5CC)nc(SC)n3)ccc21
photoluminescence quantum yield (in C1CCOC1): 0.23 | photoluminescence quantum yield (in CCOC(C)=O): 0.39 | photoluminescence quantum yield (in CN(C)C=O): 0.46 | photoluminescence quantum yield (in Cc1ccccc1): 0.35 | photoluminescence quantum yield (in ClCCl): 0.31

Structure (SMILES): CC(C)[Si](C#Cc1c2ccc(C(C)(C)C)cc2c(C#Cc2c3ccc(C(C)(C)C)cc3c(C#C[Si](C(C)C)(C(C)C)C(C)C)c3ccc(C(C)(C)C)cc23)c2ccc(C(C)(C)C)cc12)(C(C)C)C(C)C
photoluminescence quantum yield (in Cc1ccccc1): 0.02

Structure (SMILES): COc1cc(OC)cc(C2=C3C(C)=C(I)C(C)=[N+]3[B-](F)(F)n3c(/C=C/c4ccsc4)c(I)c(C)c32)c1
photoluminescence quantum yield (in C1CCOC1): 0.3 | photoluminescence quantum yield (in CS(C)=O): 0.15 | photoluminescence quantum yield (in ClCCl): 0.4

Structure (SMILES): Cc1ccc2nnn(-c3c(C#N)c4c(N)ncnc4n3[C@H]3C[C@H](O)[C@@H](CO)O3)c2c1
photoluminescence quantum yield (in CO): 0.007

Structure (SMILES): c1ccc(-c2nc(-c3ccccc3)nc(-c3ccc(N4c5ccccc5C5(c6ccccc64)c4ccccc4N(c4ccc(-c6nc(-c7ccccc7)nc(-c7ccccc7)n6)cc4)c4ccccc45)cc3)n2)cc1
photoluminescence quantum yield [1]: 0.79

Structure (SMILES): Cc1c(C)n2c(COC(=O)CNC(=O)OC(C)(C)C)c(C)c(=O)n2c1=O
photoluminescence quantum yield (in CCO): 0.63

Structure (SMILES): c1cc2ccc3ccc(OP4(Oc5ccc6ccc7cccc8ccc5c6c78)=NP(Oc5ccc6ccc7cccc8ccc5c6c78)(Oc5ccc6ccc7cccc8ccc5c6c78)=NP(Oc5ccc6ccc7cccc8ccc5c6c78)(Oc5ccc6ccc7cccc8ccc5c6c78)=N4)c4ccc(c1)c2c34
photoluminescence quantum yield (in ClCCl): 0.92

Structure (SMILES): CCOC(=O)c1cc(C(=O)OCC)c2cc(C)ccc2n1
photoluminescence quantum yield (in CCO): 0.022

Structure (SMILES): Cc1c(C)n2c(COC(=O)c3ccccc3I)c(C)c(=O)n2c1=O
photoluminescence quantum yield (in CCO): 0.634

Structure (SMILES): CCCCCCCCCCOc1cc2cc(C#Cc3ccc(/C=C(\C#N)C(=O)O)cc3)c(=O)oc2cc1OCCCCCCCCCC
photoluminescence quantum yield (in CC#N): 0.05

Structure (SMILES): N#Cc1nc(N(Cc2ccc(I)cc2)Cc2ccc(I)cc2)c(C#N)nc1N(Cc1ccc(I)cc1)Cc1ccc(I)cc1
photoluminescence quantum yield (in ClC(Cl)Cl): 0.79

Structure (SMILES): O=C1OC(=O)C2=C1[Se][C@]13C2=C[C@H](c2ccccc21)c1ccccc13
photoluminescence quantum yield (in ClCCl): 0.62

Structure (SMILES): COCCC1=Cc2nc1ccc1[nH]c(cc1CCOC)c1nc(c(NC(=O)CCCC(=O)O)cc3[nH]c2cc3CCOC)C(CCOC)=C1
photoluminescence quantum yield (in Cc1ccccc1): 0.15

Structure (SMILES): C[Si](C)(C)C#Cc1ccc(C#C[Si](C)(C)C)c2ccccc12
photoluminescence quantum yield (in C1CCCCC1): 0.85

Structure (SMILES): N#Cc1ccc(C2=CC3=c4cc(-c5ccc(C#N)cc5)c5nc(C(F)(F)C(F)(F)C(F)(F)F)nc6c(-c7ccc(C#N)cc7)cc(c4c65)C4=CC(c5ccc(C#N)cc5)=C5N=C(C(F)(F)C(F)(F)C(F)(F)F)N=C2C5C43)cc1 (stereo unspecified)
photoluminescence quantum yield (in C1CCOC1): 1

Structure (SMILES): Oc1ccc(C2=N[N+]3=Cc4c(ccc5ccccc45)O[B-]3(c3ccc([B-]45OC(c6ccc(O)cc6)=N[N+]4=Cc4c(ccc6ccccc46)O5)cc3)O2)cc1 (stereo unspecified)
photoluminescence quantum yield (in C1CCOC1): 0.01

Structure (SMILES): COc1ccc(N(c2ccc(OC)cc2)c2ccc(-c3ccc4c(c3)C(=O)c3ccccc3C4=O)cc2)cc1
photoluminescence quantum yield (in C1CCOC1): 0 | photoluminescence quantum yield (in CCCCCC): 0.265 | photoluminescence quantum yield (in CCOC(C)=O): 0 | photoluminescence quantum yield (in Cc1ccccc1): 0.0045 | photoluminescence quantum yield (in ClC(Cl)(Cl)Cl): 0.0538 | photoluminescence quantum yield (in ClCCl): 0

Structure (SMILES): COc1cc(/C=C/c2ccccc2)cc(OC)c1
photoluminescence quantum yield (in C1CCCCC1): 0.18 | photoluminescence quantum yield (in CC#N): 0.32 | photoluminescence quantum yield (in CC(C)O): 0.27 | photoluminescence quantum yield (in CCCCOCCCC): 0.26 | photoluminescence quantum yield (in CCOC(C)=O): 0.29 | photoluminescence quantum yield (in CCOCC): 0.27

Structure (SMILES): COc1cc(/C=C/c2nc(N3CCOCC3)c3c([n+]2[O-])CCCC3)cc(OC)c1OC
photoluminescence quantum yield (in ClCCl): 0.23

Structure (SMILES): COc1ccc(-n2nc(C#N)c(N3CCCCC3)n2)cc1
photoluminescence quantum yield (in CC#N): 0.929

Structure (SMILES): CC(C)(C)c1ccc2c(c1)c1cc(C(C)(C)C)ccc1n2-c1ccc(-c2nc(-c3ccc(-n4c5ccc(C(C)(C)C)cc5c5cc(C(C)(C)C)ccc54)cc3)nc(-c3ccc(P(=O)(c4ccccc4)c4ccccc4)cc3)n2)cc1
photoluminescence quantum yield [1]: 0.74

Structure (SMILES): CN(C)c1ccc2cc(C3=[O+][B-](F)(F)OC(c4ccccc4)=C3)ccc2c1
photoluminescence quantum yield (in C1CCOC1): 0.1 | photoluminescence quantum yield (in CC#N): 0.007 | photoluminescence quantum yield (in CC(C)=O): 0.01 | photoluminescence quantum yield (in CS(C)=O): 0.005 | photoluminescence quantum yield (in Cc1ccccc1): 0.97 | photoluminescence quantum yield (in ClC(Cl)Cl): 0.9 | photoluminescence quantum yield (in ClCCl): 0.13

Structure (SMILES): CCN1c2ccc(/C=N/Nc3ccccn3)cc2Sc2cc(-c3ccccc3)ccc21
photoluminescence quantum yield (in C1CCOC1): 0.26 | photoluminescence quantum yield (in CS(C)=O): 0.37 | photoluminescence quantum yield (in Cc1ccccc1): 0.17 | photoluminescence quantum yield (in ClCCl): 0.27

Structure (SMILES): Cc1nc(-c2cc(F)ccc2O)n2c1CCCC2
photoluminescence quantum yield (in ClCCl): 0.72

Structure (SMILES): CCC1(CC)c2ccccc2-c2ccc(C#Cc3ccc4ccc5cccc6ccc3c4c56)cc21
photoluminescence quantum yield (in Cc1ccccc1): 0.99

Structure (SMILES): COc1ccc(C2=[N+]3C(=Nc4c(-c5ccccc5-c5ccc(C(C)(C)C)cc5)cc(-c5ccc(OC)cc5)n4[B-]3(F)F)c3c2c2cc(C(C)(C)C)ccc2c2ccccc32)cc1
photoluminescence quantum yield (in Cc1ccccc1): 0.38

Structure (SMILES): Cc1cc(N(C)C)cc(C)c1/C=C/C=C/c1ccc(C#N)cc1
photoluminescence quantum yield (in C1CCOC1): 0.087 | photoluminescence quantum yield (in CC#N): 0.212 | photoluminescence quantum yield (in CCCCCC): 0.043 | photoluminescence quantum yield (in CCCCOCCCC): 0.061 | photoluminescence quantum yield (in CCO): 0.168 | photoluminescence quantum yield (in CCOCC): 0.082

Structure (SMILES): C=CCNS(=O)(=O)c1ccc2c(c1)C(=O)/C(=C1\Sc3ccc(S(=O)(=O)NCC=C)cc3C1=O)S2
photoluminescence quantum yield (in CN(C)C=O): 0.197 | photoluminescence quantum yield (in CS(C)=O): 0.006

Structure (SMILES): CCN(CC)c1ccc2cc(/C=C/C(=O)c3cc4ccc(N(CC)CC)cc4oc3=O)c(=O)oc2c1
photoluminescence quantum yield (in C1CCOC1): 0.53 | photoluminescence quantum yield (in C1COCCO1): 0.58 | photoluminescence quantum yield (in CC#N): 0.11 | photoluminescence quantum yield (in CC(C)=O): 0.27 | photoluminescence quantum yield (in CCO): 0.07 | photoluminescence quantum yield (in CCOC(C)=O): 0.57 | photoluminescence quantum yield (in CN(C)C=O): 0.01 | photoluminescence quantum yield (in CS(C)=O): 0.06 | photoluminescence quantum yield (in Cc1ccccc1): 0.68 | photoluminescence quantum yield (in ClC(Cl)Cl): 0.5 | photoluminescence quantum yield (in ClCCl): 0.59 | photoluminescence quantum yield (in O): 0

Structure (SMILES): CCC1(CC)c2cc(C=C(C#N)C#N)ccc2-c2ccc(N(C)C)cc21
photoluminescence quantum yield (in C1CCCCC1): 0.04 | photoluminescence quantum yield (in CC#N): 0.26 | photoluminescence quantum yield (in CCO): 0.18 | photoluminescence quantum yield (in CCOCC): 0.39 | photoluminescence quantum yield (in CS(C)=O): 0.24 | photoluminescence quantum yield (in ClCCl): 0.62 | photoluminescence quantum yield (in c1ccccc1): 0.22

More lines, now with the values ahead:

photoluminescence quantum yield (in C1CCOC1): 0.39
Structure (SMILES): c1ccc2c(c1)-c1ccccc1C21c2ccccc2-c2oc3c(c21)C1(c2ccccc2-c2ccccc21)c1ccccc1-3

photoluminescence quantum yield (in C1CCCCC1): 0.85 | photoluminescence quantum yield (in CC#N): 0 | photoluminescence quantum yield (in CO): 0 | photoluminescence quantum yield (in ClC(Cl)Cl): 0.64
Structure (SMILES): CN(C)c1ccc2nc(-c3ccc(C=C(C#N)C#N)cc3)sc2c1

photoluminescence quantum yield (in ClC(Cl)Cl): 0.34
Structure (SMILES): F[B-]1(F)n2c(cc3oc4ccccc4c32)C(c2ccc(I)cc2)=C2C=c3oc4ccccc4c3=[N+]21

photoluminescence quantum yield (in C1CCOC1): 0.084
Structure (SMILES): Cc1sc(-c2ccc(-c3nc(-c4ccccc4)c(-c4ccccc4)[nH]3)cc2)c(C)c1C1=C(c2c(C)n(C)c3ccccc23)C(F)(F)C(F)(F)C1(F)F

photoluminescence quantum yield (in ClCCl): 0.3
Structure (SMILES): C[Si]1(C)O[Si](C)(C)c2cc3nc4ccccc4c(-c4ccc(F)cc4)c3cc2[Si](C)(C)O1

photoluminescence quantum yield (in ClCCl): 0.444
Structure (SMILES): Cc1cc2c3ccccc3oc2c2[nH]c3ccccc3c12

photoluminescence quantum yield (in O): 0.09
Structure (SMILES): CCN(CC)c1ccc2c(c1)C(C)(C)C(=O)C=C2

photoluminescence quantum yield (in ClC(Cl)Cl): 0.72
Structure (SMILES): CC1=C2CCc3ccccc3C2=[N+]2C1=C(c1ccc(I)cc1)c1c(C)c3c(n1[B-]2(F)F)-c1ccccc1CC3

photoluminescence quantum yield (in C1CCOC1): 0.07 | photoluminescence quantum yield (in ClCCl): 0.07
Structure (SMILES): CCC(CC)COC1=CC2=C3c4cc(OCC(CC)CC)c(-c5cccs5)n4[B-](F)(F)[n+]4c3n(c3cc(C(C)(C)C)ccc34)[B-](F)(F)[N+]2=C1c1cccs1

photoluminescence quantum yield (in ClCCl): 0.8
Structure (SMILES): CC(C)(C)c1ccc2c(c1)c1cc(C(C)(C)C)ccc1n2-c1ccc(C#Cc2ccccc2)cc1

photoluminescence quantum yield (in ClCCl): 0.16
Structure (SMILES): [O-][n+]1c(/C=C/c2ccccc2)nc(Nc2ccccc2)c2c1CCCC2

photoluminescence quantum yield (in CO): 0.93
Structure (SMILES): Oc1cc2ccc3cc(O)cc4ccc(c1)c2c34

photoluminescence quantum yield (in CC#N): 0.51 | photoluminescence quantum yield (in CO): 0.25 | photoluminescence quantum yield (in ClCCl): 0.62
Structure (SMILES): Cc1ccc(O)c(-c2[nH]c(=O)n3c2-c2ccccc2C3=O)c1

photoluminescence quantum yield (in ClC(Cl)Cl): 0.13
Structure (SMILES): COc1ccc(-c2nc(-c3ccc(C)cc3)c3ccccn23)cc1

photoluminescence quantum yield (in C1COCCO1): 0
Structure (SMILES): CCC1=C(C2=C(C3=C(CC)S(=O)(=O)c4cc(-c5ccc(C)s5)ccc43)C(F)(F)C(F)(F)C2(F)F)c2ccc(-c3ccc(C)s3)cc2S1(=O)=O

photoluminescence quantum yield (in CS(C)=O): 0.68
Structure (SMILES): COc1cccc2oc(-c3cc4c(OC)cccc4oc3=O)cc12

photoluminescence quantum yield (in ClCCl): 0.01
Structure (SMILES): Clc1ccc(/C=C/c2cnc3ccccc3n2)cc1

photoluminescence quantum yield (in CC#N): 0.03 | photoluminescence quantum yield (in ClCCl): 0.01
Structure (SMILES): COC(=O)c1cc(=O)n(C)c2cc(-c3cccc(N(C)C)c3)sc12

photoluminescence quantum yield (in C1CCCCC1): 0.41
Structure (SMILES): CCCC1(CCC)c2ccccc2-c2ccc(-c3ccc(OC)cc3)cc21

photoluminescence quantum yield (in CCO): 0.75
Structure (SMILES): CN1C(=CC=Cc2nc3nc4ccccc4nc3s2)C(C)(C)c2ccccc21

photoluminescence quantum yield (in ClCCl): 0.08
Structure (SMILES): CC(C)(C)NC(=O)c1ccc(-c2ccccc2)c2ccc3c4ccccc4c4ccccc4c3c12

photoluminescence quantum yield (in CCO): 0.0089 | photoluminescence quantum yield (in ClCCl): 0.0121 | photoluminescence quantum yield (in O): 0.01
Structure (SMILES): N#CC(C#N)=Cc1ccc(-c2ccc(-c3nc4ccccc4s3)c(O)c2)o1

photoluminescence quantum yield (in CN(C)C=O): 0.33
Structure (SMILES): S=c1[nH]nc(-c2ccc(/C=C/c3ccc(-c4n[nH]c(=S)o4)cc3)cc2)o1

photoluminescence quantum yield (in CC(C)O): 0.1
Structure (SMILES): CC[n+]1c(C=C2C(=O)C(C=C3N(C)c4ccccc4C3(C)C)=C2[O-])sc2ccccc21

photoluminescence quantum yield (in ClC(Cl)Cl): 0.91
Structure (SMILES): COc1ccccc1-c1cc2c(o1)=CC1=Cc3cc4oc(-c5ccccc5OC)cc4n3[B-](F)(F)[N+]=21

photoluminescence quantum yield (in ClCCl): 0.284
Structure (SMILES): COc1cccc2cc(C)c3c4ccccc4[nH]c3c12

photoluminescence quantum yield (in CCCO): 0.083
Structure (SMILES): CCOC(=O)c1ccc2c(c1)sc1c3ccc(C(=O)OCC)cc3sc21

photoluminescence quantum yield (in CCCCCCC): 0.00078
Structure (SMILES): c1ccc2c3c(ccc2c1)-c1cccc2cc4ccccc4c-3c12

photoluminescence quantum yield (in CC1CCCO1): 0.64
Structure (SMILES): CC1=CC(C)=[N+]2C1=C(c1ccc(C)cc1)c1c(C)cc(/C=C/c3ccc4ccc5cccc6ccc3c4c56)n1[B-]2(F)F
